Data published in patent US12268747B2, “Polypeptides having anti-senescent effects and uses thereof” (OneSkin, Inc., priority 2019, dated 2025).
Peptide text beside a SMILES is read from it.

Columns and labels:
[1] = test system: human primary fibroblasts isolated from 3 healthy donors, etoposide-stressed; assay: Etoposide-induced senescence in fibroblasts; type: cell-based; conditions: etoposide 20 μM, 24 hours
Experimental: Cellular senescence may be caused by several different stimuli. In order to assess whether Peptide 14 was effective against UVB-induced and chemically-induced senescence, human primary fibroblasts isolated from 3 healthy donors were used. These cells were cultured in DMEM (Dulbecco's Modified Eagle's Medium) supplemented with 10% v.v. fetal bovine serum (FBS), and 1% v.v. of penicillin/streptomycin solution (1,000 U·mL−1). Cells were kept in a 5% CO2, 37° C. and 95% humidity atmosphere. After expansion, these cells were seeded in 96-well plates (4,000 cells per well) and, 6 hours after plating, were submitted to either etoposide (20 μM) treatment for 24 hours, or exposed twice to 0.05 J/cm^2 of UVB radiation. […] After incubation, relative cellular senescence (assessed by the activity of senescence associated β-galactosidase staining relative to untreated control) was analyzed and plotted in column graphs. ATRX foci were also assessed following ATRX immunofluorescence staining. Graphs were built using the average ATRX foci detected per nuclei. […] Data was analyzed using with either t-test or ANOVA followed by a Bonferroni post-hoc test. Statistical significance was determined as p-values equal or lower than 0.05 (FIG. 6).

[2] = test system: Primary fibroblasts from Progeria patients; assay: Senescence (SA-β-galactosidase, ATRX foci) in Progeria fibroblasts, short sequences; type: cell-based, human; conditions: 500 nM, 5 μM, 50 μM
Experimental: Skin cells from Progeria patients were used as a model of aging because of the high levels of cellular senescence. Primary fibroblasts from Progeria patients were cultured in DMEM (Dulbecco's Modified Eagle's Medium) supplemented with 10% v.v. fetal bovine serum (FBS), and 1% v.v. of penicillin/streptomycin solution (1,000 U·mL−1). Cells cultured at 5% CO2, 37° C. and 95% humidity atmosphere. After expansion, the cells were seeded in 96-well plates (4,000 cells per well) and, 6 hours after plating, were incubated with 500 nM, 5 μM or 50 μM of polypeptide sequence LKGIL (SEQ ID NO: 6) or WLKGI (SEQ ID NO: 7). Negative control comprised untreated cells, which received vehicle only. After incubation, relative cellular senescence, which was assessed by the activity of senescence associated β-galactosidase staining relative to untreated control and by the quantification of ATRX foci/nuclei, was analyzed. Three independent experiments (biological replicates) including three technical replicates were performed. Data was analyzed using ANOVA and a Bonferroni post-hoc test. Statistical significance was determined as p values equal or lower than 0.05, where *p<0.05 and ** p<0.01.

[3] = test system: Primary fibroblasts isolated from 3 healthy chronologically aged patients; assay: SA-B-galactosidase senescence in fibroblasts of aged donors, concentration series; type: cell-based, human; conditions: 1.56-50 μM (Peptide 16: 1.56-25 μM), 48 hours; in at least one of the tested concentrations
Experimental: Primary fibroblasts isolated from 3 healthy chronologically aged patients were used. Cells were cultured in DMEM (Dulbecco's Modified Eagle's Medium) supplemented with 10% v.v. fetal bovine serum (FBS), and 1% v.v. of penicillin/streptomycin solution (1,000 U·mL−1). Cells were kept in a 5% CO2, 37° C. and 95% humidity atmosphere. After expansion, these cells were seeded in 96-well plates (4,000 cells per well) and, 6 hours after plating the cells were treated with one of 4 senotherapeutic polypeptides (Peptide 14, Peptide 13, Peptide 15, and Peptide 16) and incubated for 48 hours. Each polypeptide was tested at 6 different concentrations: 50 μM, 25 μM, 12.5 μM, 6.25 μM, 3.12 μM, and 1.56 μM, except for Peptide 16, which was tested at 5 different concentrations: 25 μM, 12.5 μM, 6.25 μM, 3.12 μM, and 1.56 μM. A negative control comprised untreated cells, which received vehicle only. After incubation, relative cellular senescence (assessed by the activity of senescence associated B-galactosidase staining relative to untreated control) was analyzed (FIG. 2, panels A-D), in which the Y axis indicates the relative senescence levels normalized to untreated control. Each column corresponds to a different concentration of a polypeptide. Three independent experiments (biological replicates) including three technical replicates were performed. Data was analyzed using Analysis of Variance (ANOVA) and a Bonferroni post-hoc tests. Statistical significance was determined as p values equal or lower than 0.05.

[4] = test system: Primary fibroblasts from Progeria patients; assay: Polypeptide library screen: SA-B-galactosidase senescence and cell number in Progeria fibroblasts; type: cell-based, human; conditions: 10 μM, 48 hours
Experimental: Primary fibroblasts isolated from Progeria patients can constitute a genetic model of early aging and cellular senescence in humans. Primary fibroblasts from Progeria patients were cultured in DMEM (Dulbecco's Modified Eagle's Medium) supplemented with 10% v.v. fetal bovine serum (FBS), and 1% v.v. of penicillin/streptomycin solution (1,000 U·mL−1). Cells were kept in a 5% CO2, 37° C. and 95% humidity atmosphere. After expansion, these cells were seeded in 96-well plates (1,000 cells per well) and, 6 hours after plating, were incubated with individual polypeptides from a proprietary library at 50 μM for 48 hours. Negative control comprised untreated cells, which received vehicle only; positive control group comprised cells incubated with 10 μM ABT-263, a senolytic compound for the same period. […] Three independent experiments including three technical replicates were performed.

MeWo cells [5] = assay: Melanin content of MeWo cells, 7 days treatment; type: cell-based, human; conditions: 7 days after 14 day IBMX pre-treatment; Peptide 14 3.12 μM or retinoic acid 2 μM with 25 μM IBMX; positive control 25 μM IBMX
Experimental: (§1) To test whether Peptide 14 promotes depigmentation of melanocytes, MeWo cells were cultured in DMEM supplemented with 10% v/v FBS and 1% v/v of penicillin/streptomycin solution (1,000 U·mL^−1) at 5% CO2, 37° C. and 95% humidity. For two weeks prior to treatment with one of the experimental conditions (pre-treatment), the MeWo cells were cultured with isobutyl methylxanthine (IBMX) to stimulate melanin synthesis. After the MeWo cells were seeded in 6-well plates at 1,000,000 cells per well for 6 hours, the cells were incubated with one of the experimental conditions for 7 days and analyzed for intracellular and supernatant melanin content.
The experimental conditions included a positive control group, a negative control group, a Peptide 14 (IBMX) 7d group, and a retinoic acid (IBMX) 7d group. […]
After treatment, the melanin content in the cell pellet and the cell culture supernatant was assessed by the absorbance of the samples at 492 nm. […] Data are presented as relative melanin content, absorbance of the samples at a specified wavelength (492 nm) normalized to the absorbance of the negative control samples also as the same wavelength. […] The data were analyzed using ANOVA and Bonferroni post-hoc test when a statistical significance was detected. […]

MeWo cells [6] = assay: Melanin content of MeWo cells, 14 days or interrupted on 7th day; type: cell-based, human
Experimental: as §1, with “The skin frequently may experience rebound hyperpigmentation, where pigmentation is reestablished in the skin after the discontinuation of the lightening treatment(s). To” for “To”, “whether the depigmentation effect of” for “whether”, “14 remained after the Peptide 14 treatment was discontinued,” for “14 promotes depigmentation of melanocytes,”, “for 14” for “for 7”
The experimental conditions included a positive control group, a negative control group, a Peptide 14 (IBMX) 14 days group, a retinoic acid (IBMX) 14 days group, a Peptide 14 (IBMX) interrupted on 7th day group, and a retinoic acid (IBMX) interrupted on 7th day group. The negative control group comprised MeWo cells which were stimulated with 25 μM IBMX for 2 weeks in the pre-treatment period and then were untreated for 14 days, receiving the vehicle only, after being plated for the experiment. The positive control group comprised MeWo cells that were incubated with 25 μM IBMX during the entire experiment, for 2 weeks in the pre-treatment period and for 14 days in the treatment period. Some of the groups were treated with both IBMX 25 μM for 7 or 14 days, as well as 3.12 μM Peptide 14, or both IBMX 25 μM (for 7 or 14 days), as well as retinoic acid 2 μM. The Peptide 14 (IBMX) 14 day group comprised MeWo cells that were incubated with 25 μM IBMX 2 weeks in the pre-treatment period and then treated for 14 days with 25 μM IBMX and 3.12 μM Peptide 14. The retinoic acid (IBMX) 14 day group comprised MeWo cells that were incubated with 25 μM IBMX 2 weeks in the pre-treatment period and then treated for 14 days with 25 μM IBMX and 2 μM retinoic acid. […]
After treatment, the melanin content in the cell pellet and the cell culture supernatant was assessed by the absorbance of the samples at 492 nm. […] Data are presented as relative melanin content, absorbance of the samples at a specified wavelength (492 nm) normalized to the […] absorbance of the negative control samples also as the same wavelength. […] The data were analyzed using ANOVA and Bonferroni post-hoc test when a statistical significance was detected. […]

[7] = 7 day treatment, then 7 days 25 μM IBMX only

## COc1cc([C@@H]2c3cc4c(cc3[C@@H](O[C@@H]3O[C@@H]5CO[C@@H](C)O[C@H]5[C@H](O)[C@H]3O)[C@H]3COC(=O)[C@H]23)OCO4)cc(OC)c1O [Etoposide, etoposide]
[1]
  ATRX foci nuclear accumulation (average ATRX foci/cell): significant increase
  cellular senescence level: significant increase

## CC[C@H](C)[C@H](NC(=O)CNC(=O)[C@H](CCCCN)NC(=O)[C@@H](N)CC(C)C)C(=O)N[C@@H](CC(C)C)C(=O)O [LKGIL] (H-LKGIL-OH; N-terminus and C-terminus assumed)
[2]
  cellular toxicity (relative cell number): No cellular toxicity

## KLKGILRGAA [Peptide 15]
[3]
  relative cellular senescence (SA-B-galactosidase staining) vs untreated control: senotherapeutic effects

## WLKGILREAA [Peptide 16]
[3]
  relative cellular senescence (SA-B-galactosidase staining) vs untreated control: senotherapeutic effects

## CC1(C)CCC(c2ccc(Cl)cc2)=C(CN2CCN(c3ccc(C(=O)NS(=O)(=O)c4ccc(N[C@H](CCN5CCOCC5)CSc5ccccc5)c(S(=O)(=O)C(F)(F)F)c4)cc3)CC2)C1 [ABT-263]
[4]
  cellular toxicity (cell number): cellular toxicity
[4]; positive control
  cellular senescence (SA-B-galactosidase staining): significant reduction

## CC1=C(/C=C/C(C)=C/C=C/C(C)=C/C(=O)O)C(C)(C)CCC1 [retinoic acid]
MeWo cells [5]
  relative melanin content, cell pellet: about 125 % of the negative control group
MeWo cells [6]; [7]
  relative melanin content, cell culture supernatant: about 100%
  relative melanin content, cell pellet: about 90%
MeWo cells [6]; 14 day treatment, Peptide 14 3.12 μM or retinoic acid 2 μM with 25 μM IBMX, positive control 25 μM IBMX, normalized to cell number and negative control
  relative melanin content, cell pellet: about 130%
MeWo cells [6]; 14 day treatment, positive control 25 μM IBMX
  relative melanin content, cell culture supernatant: about 50%

## CC[C@H](C)[C@H](NC(=O)CNC(=O)[C@H](CCCCN)NC(=O)[C@H](CC(C)C)NC(=O)[C@@H](N)Cc1c[nH]c2ccccc12)C(=O)O [WLKGI] (H-WLKGI-OH; N-terminus and C-terminus assumed)
[2]
  cellular toxicity (relative cell number): No cellular toxicity
